Source: ChEMBL document CHEMBL5032507, “Selective Pseudo-irreversible Butyrylcholinesterase Inhibitors Transferring Antioxidant Moieties to the Enzyme Show Pronounced Neuroprotective Efficacy In Vitro and In Vivo in an Alzheimer's Disease Mouse Model” (J Med Chem, 2021)
The source made the active and inactive calls. No cut-off for these calls is given here.

Key:
[1] = target: Acetylcholinesterase (Homo sapiens) (UniProt P22303); experiment: Inhibition of human AChE using acetylthiocholine iodide as substrate at 10 uM incubated for 20 mins followed by substrate addition by Ellman's method relative to control
Acetylcholinesterase (Homo sapiens), sequence (P22303 whole entry): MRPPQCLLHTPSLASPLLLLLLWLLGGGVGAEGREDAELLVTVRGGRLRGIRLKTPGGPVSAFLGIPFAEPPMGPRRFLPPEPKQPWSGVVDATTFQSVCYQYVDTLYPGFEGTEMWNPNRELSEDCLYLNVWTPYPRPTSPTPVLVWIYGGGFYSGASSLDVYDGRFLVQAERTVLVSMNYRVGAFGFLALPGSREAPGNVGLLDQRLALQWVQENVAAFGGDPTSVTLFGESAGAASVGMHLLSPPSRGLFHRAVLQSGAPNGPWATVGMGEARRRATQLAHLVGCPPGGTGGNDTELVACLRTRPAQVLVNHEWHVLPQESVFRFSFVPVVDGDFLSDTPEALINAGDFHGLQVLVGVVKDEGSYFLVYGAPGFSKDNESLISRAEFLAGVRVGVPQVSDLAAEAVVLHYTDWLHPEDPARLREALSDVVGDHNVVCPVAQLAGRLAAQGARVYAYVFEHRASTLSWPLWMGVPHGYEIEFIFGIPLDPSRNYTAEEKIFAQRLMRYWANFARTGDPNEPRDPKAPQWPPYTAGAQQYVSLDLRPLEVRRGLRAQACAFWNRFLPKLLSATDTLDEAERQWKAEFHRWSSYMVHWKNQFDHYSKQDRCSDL

[2] = target: T1, Cholinesterase (Homo sapiens, UniProt P06276); experiment: Inhibition of human BChE using butyrylthiocholine iodide as substrate incubated for 20 mins followed by substrate addition by Ellman's method
T1 sequence (P06276 whole entry): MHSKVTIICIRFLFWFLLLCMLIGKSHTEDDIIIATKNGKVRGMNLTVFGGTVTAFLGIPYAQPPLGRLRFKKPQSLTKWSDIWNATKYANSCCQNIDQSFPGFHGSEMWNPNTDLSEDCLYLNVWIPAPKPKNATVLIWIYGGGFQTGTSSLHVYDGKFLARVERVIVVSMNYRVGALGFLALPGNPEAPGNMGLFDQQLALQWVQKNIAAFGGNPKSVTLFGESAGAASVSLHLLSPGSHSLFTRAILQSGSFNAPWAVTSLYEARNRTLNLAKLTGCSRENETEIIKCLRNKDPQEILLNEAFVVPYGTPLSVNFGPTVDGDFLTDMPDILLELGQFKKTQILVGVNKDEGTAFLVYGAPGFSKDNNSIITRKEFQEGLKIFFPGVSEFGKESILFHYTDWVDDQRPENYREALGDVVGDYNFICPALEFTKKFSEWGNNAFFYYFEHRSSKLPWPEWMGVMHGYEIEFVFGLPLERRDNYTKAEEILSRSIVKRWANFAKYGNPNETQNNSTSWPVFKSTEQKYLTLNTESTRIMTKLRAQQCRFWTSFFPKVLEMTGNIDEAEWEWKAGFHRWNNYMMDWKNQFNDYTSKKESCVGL

[3] = Metal chelating activity assessed as Fe2+ -ferrozoine complex formation at ratio of 10:1 incubated for 2 mins followed by ferrozine addition and further incubated for 10 mins by absorbance based assay; details: time 12.0 min
[4] = system: N9; experiment: Immunomodulatory activity in mouse N9 microglial cells assessed as reduction in LPS-induced iNOS expression at 0.1 to 5 uM incubated for 24 hrs by Western blot analysis; assay type: functional, cell-based; details: dose 0.1-5 µM
[5] = system: N9; experiment: Immunomodulatory activity in mouse N9 microglial cells assessed as reduction in LPS-induced IL-1beta release at 0.1 to 5 uM incubated for 24 hrs by Western blot analysis; assay type: functional, cell-based; details: dose 0.1-5 µM
[6] = system: N9; experiment: Immunomodulatory activity in mouse N9 microglial cells assessed as reduction in LPS-induced nitrite accumulation at 0.1 to 5 uM incubated for 24 hrs by Griess reagent based colorimetry assay; assay type: functional, cell-based; details: dose 0.1-5 µM
[7] = Metal chelating activity assessed as compound-Cu2+ complex formation at ratio of 10:1 incubated for 2 mins followed by pyrocatechol violet addition and further incubated for 10 mins in dark by absorbance based assay; details: time 12.0 min
[8] = system: Mus musculus; experiment: Anti-alzheimer activity against amyloid beta 25-35 induced learning impairments in Swiss mouse assessed as increase in spontaneous alteration performance by measuring total number of arm entries at 1 mg/kg, ip administered once daily for 7 days and measured on day 8 by Y-maze test; assay type: functional, organism-based; details: time 7.0 day
[9] = Toxicity in Swiss mouse assessed as change in normal behaviour at 0.1 to 3 mg/kg, ip administered for 7 days; assay type: organism-based; details: in vivo, 168 h, dose 0.1-3 mg/kg, time 7 day
[10] = Neurotoxicity in mouse HT-22 cells assessed as reduction in cell viability at 25 uM incubated for 24 hrs by MTT assay; assay type: cell-based; details: ht-22, 24 h
[11] = target: T1, Cholinesterase
Description: Binding affinity to human serum BChE assessed as half life

[12] = system: Mus musculus; experiment: Anti-alzheimer activity against amyloid beta 25-35 induced learning impairments in Swiss mouse assessed as latency to enter dark compartment at 0.3 mg/kg, ip administered once daily for 7 days and measured on day 8 by passive avoidance test; assay type: functional, organism-based; details: time 7.0 day
[13] = Toxicity in Swiss mouse assessed as change in weight gain at 0.1 to 3 mg/kg, ip administered for 7 days; assay type: organism-based; details: in vivo, 168 h, dose 0.1-3 mg/kg, time 7 day
[14] = system: N9; experiment: Immunomodulatory activity in mouse N9 microglial cells assessed as increase in LPS-induced TREM2 expression at 2.5 to 5 uM incubated for 24 hrs by Western blot analysis; assay type: functional, cell-based; details: dose 2.5-5 µM
[15] = system: HT-22; experiment: Neuroprotective activity against glutamate induced-oxidative stress in mouse HT-22 cells assessed as cell viability at 10 uM incubated for 24 hrs by MTT assay; assay type: functional, cell-based
[16] = system: N9; experiment: Immunomodulatory activity in mouse N9 microglial cells assessed as reduction in LPS-induced IL-1beta release at 2.5 to 5 uM incubated for 24 hrs by Western blot analysis; assay type: functional, cell-based; details: dose 2.5-5 µM
[17] = system: N9; experiment: Immunomodulatory activity in mouse N9 microglial cells assessed as reduction in LPS-induced iNOS expression at 2.5 to 5 uM incubated for 24 hrs by Western blot analysis; assay type: functional, cell-based; details: dose 2.5-5 µM
[18] = system: N9; experiment: Immunomodulatory activity in mouse N9 microglial cells assessed as reduction in LPS-induced nitrite accumulation at 2.5 to 5 uM incubated for 24 hrs by Griess reagent based colorimetry assay; assay type: functional, cell-based; details: dose 2.5-5 µM
[19] = system: HT-22; experiment: Neuroprotective activity against glutamate induced-oxidative stress in mouse HT-22 cells assessed as cell viability at 1 to 25 uM incubated for 24 hrs by MTT assay; assay type: functional, cell-based; details: dose 1-25 µM
[20] = system: Mus musculus; experiment: Anti-alzheimer activity against amyloid beta 25-35 induced learning impairments in wild type 129 SV mouse assessed as increase in latency to enter dark compartment at 0.3 mg/kg, ip administered once daily for 7 days and measured on day 9 by passive avoidance test; assay type: functional, organism-based; details: time 7.0 day
[21] = system: Mus musculus; experiment: Anti-alzheimer activity against amyloid beta 25-35 induced learning impairments in Swiss mouse assessed as increase in spontaneous alteration performance by measuring total number of arm entries at 0.3 to 1 mg/kg, ip administered once daily for 7 days and measured on day 8 by Y-maze test; assay type: functional, organism-based; details: dose 0.3-1 mg/kg, time 7.0 day
[22] = system: Mus musculus; experiment: Anti-alzheimer activity against amyloid beta 25-35 induced learning impairments in Swiss mouse assessed as latency to enter dark compartment at 0.1 mg/kg, ip administered once daily for 7 days and measured on day 8 by passive avoidance test; assay type: functional, organism-based; details: time 7.0 day
[23] = system: Mus musculus; experiment: Anti-alzheimer activity against amyloid beta 25-35 induced learning impairments in BChE KO mouse assessed as increase in latency to enter dark compartment at 0.3 mg/kg, ip administered once daily for 7 days and measured on day 9 by passive avoidance test; assay type: functional, organism-based; details: time 7.0 day
[24] = system: Mus musculus; experiment: Anti-alzheimer activity against amyloid beta 25-35 induced learning impairments in BChE KO mouse assessed as memory deficit in alternation performance by measuring total number of arm entries at 0.3 mg/kg, ip qd administered for 7 days and measured on day 8 by Y-maze test; assay type: functional, organism-based; details: time 7.0 day
[25] = system: N9; experiment: Immunomodulatory activity in mouse N9 microglial cells assessed as reduction in LPS-induced IL-1beta release at 0.5 to 5 uM incubated for 24 hrs by Western blot analysis; assay type: functional, cell-based; details: dose 0.5-5 µM
[26] = system: Mus musculus; experiment: Anti-alzheimer activity against amyloid beta 25-35 induced learning impairments in wild type 129 SV mouse assessed as increase in spontaneous alternation performance by measuring total number of arm entries at 0.3 mg/kg, ip administered once daily for 7 days and measured on day 8 by Y-maze test; assay type: functional, organism-based; details: time 7.0 day
[27] = system: HT-22; experiment: Neuroprotective activity against glutamate induced-oxidative stress in mouse HT-22 cells assessed as cell viability at 5 uM incubated for 24 hrs by MTT assay; assay type: functional, cell-based

`COc1cc(/C=C/C(=O)NCCCCCCNC(=O)Oc2ccc3c(c2)CN2CCc4ccccc4C2N3C)ccc1O` (stereo not given) showed an inhibition [1] of 20% and an IC50 ([2]; read-out: IC50) of 166 nM.
`Cc1c(C)c2c(c(C)c1O)CCC(C)(C(=O)NCCCCNC(=O)Oc1ccc3c(c1)CN1CCc4ccccc4C1N3C)O2` (stereo not given) showed an inhibition [1] of 15.2% and an IC50 ([2]; read-out: IC50) of 791 nM.
Work on `CN1c2ccc(OC(=O)NCCCCNC(=O)/C=C/c3ccccc3)cc2CN2CCc3ccccc3C21` (stereo not given) yielded an inhibition [1] of 6.1% and an IC50 ([2]; read-out: IC50) of 221 nM.
`Cc1c(C)c2c(c(C)c1O)CCC(C)(C(=O)NCCCCCCNC(=O)Oc1ccc3c(c1)CN1CCc4ccccc4C1N3C)O2` (stereo not given) showed an inhibition [1] of 24.1%, an IC50 ([2]; read-out: IC50) of 255 nM and an IC50 ([2]; read-out: pIC50 (converted)) of 9330 nM.
In the case of `COc1cc(/C=C/C(=O)NCCCCNC(=O)Oc2ccc3c(c2)CN2CCc4ccccc4C2N3C)ccc1O` (stereo not given), the Activity [3] is reported as “inactive”, the Activity [4] is reported as “Active” and the Activity [5] is reported as “Active”. The Activity [6] was “Active”, the Activity [7] was “inactive” and the Activity [8] was “Active”. For the same compound, the Activity [9] was “Non-Toxic”, the Activity [10] was “Non-Toxic” and the T1/2 [11] was 2.4 h. For the same compound, the inhibition [1] was 7.7%, the Activity [12] was “Active” and the Activity [13] was “Non-Toxic”. For the same compound, the IC50 ([2]; read-out: IC50) was 155 nM, the IC50 ([2]; read-out: pIC50 (converted)) was 115 nM and the Activity [14] was “Active”. The Activity [15] was “Active”.
For `COc1ccc2[nH]cc(CCNC(C)=O)c2c1` [MELATONIN], the Activity [3] was “inactive”, the Activity [16] was “inactive” and the Activity [17] was “inactive”. For the same compound, the Activity [7] was “inactive”, the Activity [18] was “inactive” and the Activity [10] was “Non-Toxic”. The Activity [19] was “inactive”.
With `COc1ccc2[nH]cc(CCNC(=O)CCNC(=O)Oc3ccc4c(c3)CN3CCc5ccccc5C3N4C)c2c1` (stereo not given) the inhibition [1] was 2.3% and the IC50 ([2]; read-out: IC50) was 482 nM.
In the case of `COc1cc(/C=C/C(=O)O)ccc1O` [FERULATE], the Activity [3] is reported as “inactive”, the Activity [16] is reported as “inactive” and the Activity [17] is reported as “inactive”. For the same compound, the Activity [7] was “inactive”, the Activity [18] was “inactive” and the Activity [10] was “Non-Toxic”. The Activity [19] was “inactive”.
With `COc1ccc2[nH]cc(CCNC(=O)CCCCCCNC(=O)Oc3ccc4c(c3)CN3CCc5ccccc5C3N4C)c2c1` (stereo not given) the Activity [3] was “inactive”, the Activity [20] was “Active” and the Activity [4] was “Active”. For the same compound, the Activity [21] was “Active”, the Activity [6] was “Active” and the Activity [22] was “Active”. For the same compound, the Activity [7] was “inactive”, the Activity [23] was “inactive” and the Activity [9] was “Non-Toxic”. The Activity [10] was “Non-Toxic”, the Activity [24] was “inactive” and the Activity [25] was “Active”. For the same compound, the T1/2 [11] was 3 h, the inhibition [1] was 6.5% and the Activity [26] was “Active”. For the same compound, the Activity [27] was “Active”, the Activity [13] was “Non-Toxic” and the IC50 ([2]; read-out: IC50) was 102 nM. The IC50 ([2]; read-out: pIC50 (converted)) was 204 nM and the Activity [14] was “Active”.
Compound `CN1c2ccc(OC(=O)NCCCCCCNC(=O)/C=C/c3ccccc3)cc2CN2CCc3ccccc3C21` (stereo not given) has an inhibition [1] of 37.5% and an IC50 ([2]; read-out: IC50) of 442 nM.
Work on `COc1ccc2[nH]cc(CCNC(=O)CCCCNC(=O)Oc3ccc4c(c3)CN3CCc5ccccc5C3N4C)c2c1` (stereo not given) yielded an inhibition [1] of 15% and an IC50 ([2]; read-out: IC50) of 127 nM.
